The text below walks through data of publication PMC5625148, “Arginine‐rich membrane‐permeable peptides are seriously toxic” (Pharmacology Research & Perspectives, 2017).

Usually LD50 stands for the dose at which mortality reaches 50%. A high value points to lower toxicity.

Counter-ions that a name gives are not always drawn.

In series [1] the test system is mice. Briefly: Acute toxicity study in mice after intravenous (tail vein) injection of MPPs or MPP-conjugates. In kind it is in vivo, mice (Kunming species). The protocol:
A total of 390 mice (Kunming species, 22 ± 2 g, sex matched), were provided by the Experimental animal center of Academy of military medical sciences, China. The health condition of the mice was examined to confirm their suitability for use in the study. The animal rooms were monitored and maintained under a 12 h light‐dark cycle with temperature ranging from 20 to 25°C and a relative humidity of 40–60%. All the mice were allowed to acclimate to the laboratory environment for 2 days, housed by sex in groups of five per cage, provided with standard commercial diet and drinking water ad libitum. All the animal procedures performed in this study were reviewed and approved by the Animal Experimental Welfare and Ethical Inspection Committee of the Chinese Center for Disease Control and Prevention (Approval number IACUC#15‐026).
Firstly, a preliminary sequential toxicity testing was carried to find out the scope of the dosage. Then four dosages within this range were properly selected to carry on the LD50 estimation. The LD50 was calculated avoid the all or none survival groups of mice.
Five males and five females per group were stratified by weight and assigned randomly. The control mice and those in groups 1, 2, 3, 4 were intravenously injected with different doses of MPPs or MPP‐conjugates. The general behavior and signs of toxicity were monitored for 3 h after administration, and carried on once a day up to 14 days. The surviving mice were euthanized while those died from the poisoning were necropsied.
All the data are expressed as the means ± standard deviation (SD), and comparisons among the different groups were performed using an analysis of variance (ANOVA). The IBM statistical package for the social science (SPSS) statistics 20 software was used for all the analysis. The significance level was set at 5 and 1% (P < 0.05 and P < 0.01). The LD50 value was determined according to the Bliss method (Badisa et al. 2008).

A further series concerns rats. As to conditions: ref Saka et al. 2004; cited from earlier work. The source says: (§1) The mechanism of the poisonous effects caused by TAT and CTP is not yet well understood. However, it is known that L‐arginine stimulates the release of insulin and causes necrotic pancreatitis with specific elevation of amylase in serum and urine. […] Thus, the higher mass ratio of arginine residues in the conjugate (Table 4) might be the best explanation of the toxicity.

The subject of series [2] is mice. The note with it: converted from rat value; ref Saka et al. 2004; cited from earlier work.
From the text: as §1

Where [3] appears, read: iv, Bliss method, five males and five females per group, observed up to 14 days, Table 2.

As for `NCCCC(=O)O` [GABA, γ‐aminobutyric acid], the Toxicity in words entry in the series with mice [1] (dose as high as 8000 mg kg^−1) is “not toxic at all”. Further, the “Survival rate (%)” value in the series on mice [1] (iv, 8000 mg kg^−1) came to 100%.
Regarding ACSSSPSKHCG [TD], the “Survival rate (%)” value with mice [1] (iv, 140 mg kg^−1) was 100%. Also, the LD50 is over 140 mg/kg in the series with mice [1] (setting [3]) and over 140 mg/kg in the series with mice [1] (iv, rounded values of Table 4). Moreover, the “Mortality (%)” value in the series with mice [1] (iv, group 1, 80 mg kg^−1) was 0%; in the series on mice [1] (iv, group 2, 100 mg kg^−1) it was 0%; in the series with mice [1] (iv, group 3, 140 mg kg^−1), 0%. The Mortality in the series with mice [1] (iv, group 1, 80 mg kg^−1, dead/total) is reported as 0/2; in the series with mice [1] (iv, group 2, 100 mg kg^−1, dead/total), 0/8; in the series on mice [1] (iv, group 3, 140 mg kg^−1, dead/total) it was 0/8. Also, the “Survival and side effects in words” value in the series on mice [1] (tail vein, 140 mg kg^−1) is reported as “all the mice well survived even without any side effect appeared”.
Regarding `N=C(N)NCCC[C@H](N)C(=O)O` [arginine], in the series on rats, the “LD50 of arginine in rats” value was 3793 mg/kg. In addition, in the series with mice [2], the “LD50 of arginine, corresponding value in mice” value was 542 mg/kg.
With `O=C(O)C(F)(F)F` [TFA, Trifluoroacetic acid], the “Toxicity in words (TFA control group)” value in the series with mice [1] (0.1% TFA solution) is “did not manifest any toxicity”; in the series with mice [1] (0.5% TFA solution), “did not manifest any toxicity”; with mice [1] (1% TFA solution), “did not manifest any toxicity”; in the series with mice [1] (2% TFA solution) it was “death appeared in a part of the mice”.
With “YGRKKRRQRRR [TAT, arginine-rich membrane-permeable undecapeptide …]”, the LD50 was 27.244 mg/kg with mice [1] (iv (tail vein), values in text); 27.244 mg/kg in the series on mice [1] (setting [3]); 27 mg/kg in the series with mice [1] (iv, rounded values of Table 4). The “Survival rate (%)” value in the series on mice [1] (iv, 27 mg kg^−1) was found to be 50%. For the same compound, the “Mortality (%)” value is given as 22.2% with mice [1] (iv, group 1, 25 mg kg^−1); 44.4% in the series on mice [1] (iv, group 2, 27 mg kg^−1); 55.6% with mice [1] (iv, group 3, 28 mg kg^−1); 87.5% with mice [1] (iv, group 4, 30 mg kg^−1). Further, the Mortality in the series on mice [1] (iv, group 1, 25 mg kg^−1, dead/total) is listed as 2/9; in the series with mice [1] (iv, group 2, 27 mg kg^−1, dead/total), 4/9; with mice [1] (iv, group 3, 28 mg kg^−1, dead/total), 5/9; in the series on mice [1] (iv, group 4, 30 mg kg^−1, dead/total), 7/8.
For “YGRRARRRRRR [CTP, arginine-rich membrane-permeable undecapeptide […]]”, the LD50 in the series on mice [1] (iv (tail vein), values in text) stood at 21.345 mg/kg; in the series on mice [1] (setting [3]), 21.345 mg/kg; in the series on mice [1] (iv, rounded values of Table 4), 21 mg/kg. For the same compound, in the series with mice [1] (iv, 21 mg kg^−1), the “Survival rate (%)” value is 50%. Moreover, the “Mortality (%)” value in the series with mice [1] (iv, group 1, 19.5 mg kg^−1) worked out at 20%; in the series with mice [1] (iv, group 2, 20 mg kg^−1), 30%; with mice [1] (iv, group 3, 20.5 mg kg^−1), 36.4%; in the series on mice [1] (iv, group 4, 22 mg kg^−1), 60%. Also, the Mortality with mice [1] (iv, group 1, 19.5 mg kg^−1, dead/total) was 2/10; in the series with mice [1] (iv, group 2, 20 mg kg^−1, dead/total), 3/10; with mice [1] (iv, group 4, 22 mg kg^−1, dead/total), 6/10.
As to “RRRRRRRRRRR [R11, undecapeptide composed purely of arginine residues, …]”, the LD50 in the series on mice [1] (iv (tail vein), values in text) amounted to 16.5 mg/kg; with mice [1] (setting [3]) it was 16.508 mg/kg; in the series with mice [1] (iv, rounded values of Table 4) it was 16.5 mg/kg. Moreover, the “Survival rate (%)” value in the series on mice [1] (iv, 16.5 mg kg^−1) is recorded as 50%. In addition, the “Mortality (%)” value in the series with mice [1] (iv, group 1, 15.5 mg kg^−1) stood at 10%; with mice [1] (iv, group 2, 16 mg kg^−1), 30%; in the series on mice [1] (iv, group 3, 16.5 mg kg^−1), 50%; with mice [1] (iv, group 4, 17 mg kg^−1) it was 70%. Also, the Mortality is given as 1/10 with mice [1] (iv, group 1, 15.5 mg kg^−1, dead/total); 3/10 with mice [1] (iv, group 2, 16 mg kg^−1, dead/total); 5/10 in the series on mice [1] (iv, group 3, 16.5 mg kg^−1, dead/total); 7/10 in the series with mice [1] (iv, group 4, 17 mg kg^−1, dead/total).
